Literature values, collected in article PMC11776332 (Virology Journal, 2025).

System: HIV-1

IC50 compared with CV-10240: lower IC50 than CV-10240
SMILES: C=C(C)[C@@H]1CC[C@]2(NCCN3CCS(=O)(=O)CC3)CC[C@]3(C)[C@H](CC[C@@H]4[C@@]5(C)CC=C(C6=CC[C@@](CF)(C(=O)O)CC6)C(C)(C)[C@@H]5CC[C@]43C)[C@@H]12 [GSK3640254]
